Data as given in patent US20260053764A1, “COMPOSITION FOR PREVENTING DETERIORATION IN COGNITIVE FUNCTION AND/OR IMPROVING COGNITIVE FUNCTION” (PHARMA FOODS INTERNATIONAL CO., LTD., priority 2020, published 2026).

Test system: cognitive function of a human
Assay: Cognitrax test in placebo-controlled randomized double-blind clinical tests A and B
Format: in vivo
Parameters: Reaction time / Complex attention / Cognitive flexibility / Social acuity / Non-verbal reasoning / Working memory / Continuous attention / Simple attention: scale not given here
Description: A Cognitrax test is known as such an examination that can assess a plurality of domains or items of cognitive function. The Cognitrax test is a cognitive function examination service practiced on the Web based on the cognitive function examination technique developed by CNS Vital Signs in the United States. In the Cognitrax test, among a total of 10 types of tests, which are verbal memory test, visual memory test, finger tapping test, symbol digit coding test (SDC test), Stroop test, shifting attention test, continuous performance test, perception of emotion test, reasoning test and four part continuous performance test, a test is carried out in accordance with the purpose of the examination to digitize the examination result regarding each of a total of 16 types of items at most, which are neurocognition index, composite memory, verbal memory, visual memory, psychomotor speed, reaction time, complex attention, cognitive flexibility, processing speed, executive function, social acuity, non-verbal reasoning, working memory, continuous attention, simple attention and motor speed.
Two types of placebo-controlled randomized double-blind two-group parallel comparison tests were carried out as clinical tests. […] Specifically, capsules comprising 100 mg of dextrin per capsule were used as the placebo food.
The screening examination was carried out to select 60 subjects for each test (a total of 120 subjects). MMSE (Mini Mental State Examination) is an examination for assessing the degree of progression of dementia or the like based on the score thereof with 30 as the perfect score, wherein dementia is suspected with a score of 23 or lower.
• (1) Japanese male and female at the age of 40 or higher • (2) People aware of reduction in cognitive function • (3) People who can continuously ingest the test food every day for 12 weeks • (4) People with an MMSE score of 24 or higher • (5) People who have received sufficient explanation of the purpose/content of the clinical test, have the ability to give consent, voluntarily applied to participate in the clinical test with sufficient understanding, and gave consent to the participation in the clinical test on paper
The total of 120 subjects were randomly divided into test A active group, test A placebo group, test B active group and test B placebo group with 30 subjects in each group. Each subject of the test A active group ingested two capsules of the active food, each subject of the test A placebo group ingested two capsules of the placebo food, each subject of the test B active group ingested one capsule of the active food and each subject of the test B placebo group ingested one capsule of the placebo food.
Each subject followed the schedule shown in the table below and ingested one or two of the assigned capsules together with water for 12 weeks from two weeks after the initial screening examination. All subjects had no particular instruction during the ingestion period and freely took their meals.
As shown with ● in the test schedule in Table 1, Cognitrax was carried out a total of five times, which are upon screening, before starting test food sample ingestion, after four weeks of ingestion, after eight weeks of ingestion and after twelve weeks of ingestion, and the RBANS neuropsychological test was carried out a total of two times, which are before staring test food ingestion and after twelve weeks of ingestion.

[1] = test B 100 mg, before ingestion
[2] = test B 100 mg, before ingestion, mean ± SD

SMILES: NCCCC(=O)O [GABA, γ-aminobutyric acid]
- Cognition flexibility: difference between active food and placebo food groups (test B 100 mg, 4 w): −3.6
- Complex attention: difference between active food and placebo food groups (test B 100 mg, 4 w): −4.0
- Composite memory: difference between active food and placebo food groups (test B 100 mg, 4 w): 7.2
- Continuous attention: difference between active food and placebo food groups (test B 100 mg, 4 w): −0.6
- Executive function: difference between active food and placebo food groups (test B 100 mg, 4 w): −3.2
- Motor speed: difference between active food and placebo food groups (test B 100 mg, 4 w): 6.9
- Non-verbal reasoning: difference between active food and placebo food groups (test B 100 mg, 4 w): 0.5
- Processing speed: difference between active food and placebo food groups (test B 100 mg, 4 w): 0.8
- Psychomotor speed: difference between active food and placebo food groups (test B 100 mg, 4 w): 5.3
- Reaction time: difference between active food and placebo food groups (test B 100 mg, 4 w): 0.8
- Simple attention: difference between active food and placebo food groups (test B 100 mg, 4 w): −5.8
- Social acuity: difference between active food and placebo food groups (test B 100 mg, 4 w): −4.4
- Verbal memory: difference between active food and placebo food groups (test B 100 mg, 4 w): 9.1
- Visual memory: difference between active food and placebo food groups (test B 100 mg, 4 w): 2.4
- Working memory: difference between active food and placebo food groups (test B 100 mg, 4 w): 0.4
- Cognitive flexibility (test B 100 mg, 4 w, mean ± SD): 105.8 ± 11.3
- Complex attention (test B 100 mg, 4 w, mean ± SD): 106.3 ± 12.9
- Continuous attention (test B 100 mg, 4 w, mean ± SD): 111.8 ± 7.2
- Reaction time (test B 100 mg, 4 w, mean ± SD): 97.8 ± 10.8
- Simple attention (test B 100 mg, 4 w, mean ± SD): 97.8 ± 25.2
- Social acuity (test B 100 mg, 4 w, mean ± SD): 90.5 ± 16.7
- Working memory (test B 100 mg, 4 w, mean ± SD): 110.4 ± 9.3
- Cognition flexibility: difference between active food and placebo food groups (test B 100 mg, 8 w): −0.5
- Complex attention: difference between active food and placebo food groups (test B 100 mg, 8 w): −0.4
- Composite memory: difference between active food and placebo food groups (test B 100 mg, 8 w): 7.4
- Continuous attention: difference between active food and placebo food groups (test B 100 mg, 8 w): −0.8
- Executive function: difference between active food and placebo food groups (test B 100 mg, 8 w): −0.4
- Motor speed: difference between active food and placebo food groups (test B 100 mg, 8 w): 7.3
- Non-verbal reasoning: difference between active food and placebo food groups (test B 100 mg, 8 w): 0.5
- Processing speed: difference between active food and placebo food groups (test B 100 mg, 8 w): 1.5
- Psychomotor speed: difference between active food and placebo food groups (test B 100 mg, 8 w): 6.3
- Reaction time: difference between active food and placebo food groups (test B 100 mg, 8 w): 1.4
- Simple attention: difference between active food and placebo food groups (test B 100 mg, 8 w): 2.8
- Social acuity: difference between active food and placebo food groups (test B 100 mg, 8 w): 6.1
- Verbal memory: difference between active food and placebo food groups (test B 100 mg, 8 w): 8.8
- Visual memory: difference between active food and placebo food groups (test B 100 mg, 8 w): 3.1
- Working memory: difference between active food and placebo food groups (test B 100 mg, 8 w): −1.8
- Complex attention (test B 100 mg, 8 w, mean ± SD): 109.6 ± 10.3
- Continuous attention (test B 100 mg, 8 w, mean ± SD): 110.2 ± 8.9
- Non-verbal reasoning (test B 100 mg, 8 w, mean ± SD): 106.2 ± 12.2
- Reaction time (test B 100 mg, 8 w, mean ± SD): 97.9 ± 10.0
- Simple attention (test B 100 mg, 8 w, mean ± SD): 101.3 ± 13.0
- Social acuity (test B 100 mg, 8 w, mean ± SD): 95.4 ± 17.0
- Working memory (test B 100 mg, 8 w, mean ± SD): 109.8 ± 9.5
- Cognition flexibility: difference between active food and placebo food groups (test B 100 mg, 12 w): −2.3
- Complex attention: difference between active food and placebo food groups (test B 100 mg, 12 w): −2.5
- Composite memory: difference between active food and placebo food groups (test B 100 mg, 12 w): 5.5
- Continuous attention: difference between active food and placebo food groups (test B 100 mg, 12 w): 0.0
- Executive function: difference between active food and placebo food groups (test B 100 mg, 12 w): −2.4
- Motor speed: difference between active food and placebo food groups (test B 100 mg, 12 w): 6.5
- Non-verbal reasoning: difference between active food and placebo food groups (test B 100 mg, 12 w): 3.9
- Processing speed: difference between active food and placebo food groups (test B 100 mg, 12 w): 2.4
- Psychomotor speed: difference between active food and placebo food groups (test B 100 mg, 12 w): 5.4
- Reaction time: difference between active food and placebo food groups (test B 100 mg, 12 w): −1.7
- Simple attention: difference between active food and placebo food groups (test B 100 mg, 12 w): −6.5
- Social acuity: difference between active food and placebo food groups (test B 100 mg, 12 w): 4.6
- Verbal memory: difference between active food and placebo food groups (test B 100 mg, 12 w): 6.8
- Visual memory: difference between active food and placebo food groups (test B 100 mg, 12 w): 2.1
- Working memory: difference between active food and placebo food groups (test B 100 mg, 12 w): 0.9
- Complex attention (test B 100 mg, 12 w, mean ± SD): 109.9 ± 10.1
- Continuous attention (test B 100 mg, 12 w, mean ± SD): 110.8 ± 13.8
- Motor speed (test B 100 mg, 12 w, mean ± SD): 108.3 ± 12.9
- Non-verbal reasoning (test B 100 mg, 12 w, mean ± SD): 107.5 ± 10.6
- Simple attention (test B 100 mg, 12 w, mean ± SD): 99.2 ± 21.3
- Social acuity (test B 100 mg, 12 w, mean ± SD): 97.2 ± 17.0
- Working memory (test B 100 mg, 12 w, mean ± SD): 112.2 ± 7.9
- Cognition flexibility: difference between active food and placebo food groups [1]: 2.4
- Complex attention: difference between active food and placebo food groups [1]: 3.0
- Composite memory: difference between active food and placebo food groups [1]: 5.2
- Continuous attention: difference between active food and placebo food groups [1]: 1.2
- Executive function: difference between active food and placebo food groups [1]: 2.1
- Motor speed: difference between active food and placebo food groups [1]: 6.4
- Non-verbal reasoning: difference between active food and placebo food groups [1]: 3.1
- Processing speed: difference between active food and placebo food groups [1]: 1.5
- Psychomotor speed: difference between active food and placebo food groups [1]: 4.5
- Reaction time: difference between active food and placebo food groups [1]: 1.9
- Simple attention: difference between active food and placebo food groups [1]: 3.3
- Social acuity: difference between active food and placebo food groups [1]: 0.8
- Verbal memory: difference between active food and placebo food groups [1]: 6.4
- Visual memory: difference between active food and placebo food groups [1]: 2.0
- Working memory: difference between active food and placebo food groups [1]: 2.6
- Cognitive flexibility [2]: 105.9 ± 10.0
- Continuous attention [2]: 111.6 ± 6.9
- Executive function [2]: 105.5 ± 9.9
- Non-verbal reasoning [2]: 102.6 ± 14.1
- Reaction time [2]: 98.1 ± 9.0
- Simple attention [2]: 101.2 ± 14.9
- Social acuity [2]: 92.6 ± 16.0
- Working memory [2]: 110.5 ± 7.9
- scores regarding motor speed, GABA group compared to the placebo group (test B, at least after eight weeks of ingestion): significant improvement
